Assay results as given in US20180104240A1, “AMELIORATION OF RADIATION-INDUCED COGNITIVE DYSFUNCTION” (NEURALSTEM, INC., priority 2016, published 2018).

What was measured:
Type in all cases: in vivo, rat
Long Evans (LE) rats [1] = assay: Temporal Order (TO) spontaneous exploration task after head-only irradiation
Source text: (§1) Ten (10) week old Long Evans (LE) rats (Crl:LE, Strain Code: 006; Charles River) were divided randomly into three groups (n=16/group):
(§2) Controls (Con) received oral gavage (vehicle only) and sham radiation.
(§3) Radiation recipients with no drug (IRR) administered oral gavage (vehicle only) and 27 Gy head-only fractionated radiation.
(§4) Radiation recipients having administered drug (IRR+NSI-189) received the compound of formula (2) wherein R^1=amyl as the phosphate salt by oral gavage. Drug was administered at 30 mg/kg (amount based exclusive of phosphate) and 27 Gy head-only fractionated radiation administered as in the IRR group. Rats in this group were administered NSI-189 in sterile vehicle (normal saline) as a 1× solution (15 mg/ml) starting 24 hours after the final dose of radiation and daily thereafter for 30 days. Sterile gavage needles with protected tips were used and the drug administered for less than a minute. […]
(§5) Rats were subjected to cognitive testing using spontaneous exploration tasks outlined below 1 week after termination of oral gavage (5 weeks post irradiation) over the course of 3 weeks. […] All data were collected using Noldus Ethovision v8.5 and later hand scored by a technician blind to the treatment groups. […]

Long Evans (LE) rats [2] = assay: Object in Place (OiP) spontaneous exploration task after head-only irradiation
Source text: as §1, §2, §3, §4, §5

[3] = system: proliferating (BrdU+) cells present in the hippocampal dentate gyrus; assay: Neurogenesis: BrdU and BrdU/NeuN immunohistochemical labeling after head-only irradiation; conditions: irradiated rats, 30 mg/kg oral, 30 days
Description: as §1
Radiation recipients having administered drug (IRR+NSI-189) received the compound of formula (2) wherein R^1=amyl as the phosphate salt by oral gavage. Drug was administered at 30 mg/kg (amount based exclusive of phosphate) and 27 Gy head-only fractionated radiation administered as in the IRR group. Rats in this group were administered NSI-189 in sterile vehicle (normal saline) as a 1× solution (15 mg/ml) starting 24 hours after the final dose of radiation and daily thereafter for 30 days. Sterile gavage needles with protected tips were used and the drug administered for less than a minute.
For IRR and IRR+NSI-189, rats were anesthetized [2.5% (vol/vol) isoflurane/oxygen], placed ventrally on the treatment table (X-RAD 320 irradiator; Precision X-Ray) without restraint, and positioned under a collimated (1.0 cm^2 diameter) beam for head-only radiation delivered at a dose rate of 1.0 Gy/min. Fractionation of 27 Gy was delivered over 3 separate doses of […] that were administered 48 hours apart. […]
Remaining animals that were not used for Golgi-Cox staining (n=12/group) were given a barbiturate overdose and were perfused/fixated using 4% paraformaldehyde and tissue removed. Tissue was analyzed by immunohistochemistry.

Long Evans (LE) rats [4] = assay: Novel Object Recognition (NOR) spontaneous exploration task after head-only irradiation
Source text: as §1, §2, §3, §4, §5

Long Evans (LE) rats [5] = assay: Novel Place Recognition (NPR) spontaneous exploration task after head-only irradiation
Source text: as §1, §2, §3, §4, §5

[6] = IRR lower than IRR+NSI-189 (P<0.05), 30 mg/kg oral, 30 days, 27 Gy

CC(C)CCNc1ncccc1C(=O)N1CCN(Cc2ccccc2)CC1 [NSI-189]
TO exploration ratio of IRR+NSI-189 compared with Con (statistics, in words) (Long Evans (LE) rats [1]; 30 mg/kg oral, 30 days, 27 Gy): did not differ statistically | Exploration Ratio mean (TO) (Long Evans (LE) rats [1]; rats, 27 Gy head-only fractionated radiation, 30 mg/kg oral gavage daily for 30 days, object sets 3 hours apart, test after additional 1 hour): mean = 67.95 | OiP exploration ratio of IRR+NSI-189 compared with Con (statistics, in words) (Long Evans (LE) rats [2]; [6]): showed no significant differences | Exploration Ratio mean (OiP) (Long Evans (LE) rats [2]; rats, 27 Gy head-only fractionated radiation, 30 mg/kg oral gavage daily for 30 days): mean = 64.60 | yield of BrdU+/NeuN+ cells (mature neurons) in the hippocampal dentate gyrus ([3]; dual immunohistochemical labeling): returned the yield of BrdU^+/NeuN^+ cells to pre-irradiation levels | number of proliferating (BrdU+) cells in the hippocampal dentate gyrus ([3]; radiation alone gave significant (P<0.05) reduction): returned to pre-irradiation levels | NOR exploration ratio of IRR+NSI-189 compared with Con (statistics, in words) (Long Evans (LE) rats [4]; IRR lower than IRR+NSI-189 (P<0.01), 30 mg/kg oral, 30 days, 27 Gy): statistically indistinguishable | Exploration Ratio mean (NOR) (Long Evans (LE) rats [4]; rats, 27 Gy head-only fractionated radiation, 30 mg/kg oral gavage daily for 30 days, 5 min retention interval): mean = 71.28 | NPR exploration ratio of IRR+NSI-189 compared with Con (statistics, in words) (Long Evans (LE) rats [5]; [6]): did not differ significantly from Con | Exploration Ratio mean (NPR) (Long Evans (LE) rats [5]; rats, 27 Gy head-only fractionated radiation, 30 mg/kg oral gavage daily for 30 days starting 24 hours after final radiation dose, tested 5 weeks post irradiation, 1 hour retention): mean = 60.69
